For 1 substance, water solubility results are on record in US4704464A, “Tumor retarding (1-benzyl-ethylenediamine)-platin (II)-complexes” (ASTA-Werke Aktiengesellschaft Chemische Fabrik, priority 1985, dated 1987).

This data set is described as follows: solubility. To be noted: Example 37 complexes. In kind it is physicochemical.

Take “D,L-dibenzenesulfonate-(1-benzylethylenediamine)-platinum II [dibenzenesulfonate complexes]”: the water solubility entry is recorded as “good water solubility”.
